Data taken from patent US20050090471A1, “Inhibitors of cyclin-dependent kinases, compositions and uses related thereto” (GPC Biotech, Inc, priority 2001, published 2005).

Key:
Type in all cases: cell-based, human
HCT-116 cells = test: BrdU incorporation into DNA (flow cytometry); parameters: unit not given here; details: inhibition of BrdU incorporation, unit not given; for BrdU 24: analysis at 24 hours; for BrdU 48: analysis at 48 hours; for BrdU 72: analysis at 72 hours
Protocol: This method measured the percentage of cells that incorporated the nucleotide analog, BrdU, into newly synthesized DNA as cells progressed through the S phase of the cell cycle. The inhibition of BrdU incorporation was used as a measure of a Cdlc inhibitor's effect on S phase progression and DNA replication.
3 sets of HCT-116 cells (100,000 cells/set) were plated in T25 flasks and incubated with a test compound as above. Analysis was done at 24, 48, and 72 hours. BrdU was added to each T-25 flask from a stock of 10 mg/ml to a final concentration of 10 μM and the cells were incubated for an additional 16-18 hours at 37° C. The cells were then prepared for flow cytometric analysis according to manufacturer's protocol (BrdU Flow kit, BD-Pharmingen catalogue # 2354KK) as follows:
Cells were harvested (adherent and floating) from the T25 flasks directly into Falcon 12×75 flow cytometric tubes as above followed by fixation and permeabilization with the addition of 100 μl Cytofix/Cytoperm buffer (30 minutes, room temperature). The cells were then washed with 1 ml of Perm Wash buffer and the cell pellets were resuspended in 100 μl Cytoperm Plus buffer and incubated on ice for 10 minutes. The cells were then washed again with 1 ml of Perm Wash buffer and the fixation was repeated in 100 μl of Cytofix/Cyto Perm buffer for 10 minutes at room temperature. The cells were then washed with 1 ml of Perm Wash buffer. The cells were next treated for one hour at 37° C. with 100 μl DNase to expose incorporated BrdU followed by another wash step with 1 ml of Perm Wash buffer. […] Cells were protected from light and incubated at room temperature for 20-30 minutes. Following the incubation, the cells were washed with 1 ml of Perrn Wash buffer, resuspended in 300 μl of 2% FBS in PBS, and analyzed on the flow cytometer.

arrested IMR90 cells = test: Arrested cell assay (serum starvation), IMR90; parameters: unit not given here; details: serum-starved arrested cells; unit not given
Protocol: Cyclin-dependent kinase (Cdk) activity is required to promote the progression of cells through distinct phases of the cell division cycle. The proliferation of normal, non-transformed, cells in culture requires the presence of growth factors, the removal of which, through serum deprivation, leads to a loss of Cdlc activity and consequent exit from the cell cycle as cells enter the quiescent phase, Go.
IMR90 cells were plated in triplicate for each compound concentration to be tested in MEM-α media containing 10% fetal calf serum at a density of either 2,000 or 20,000 cells per well in 24-well dishes and incubated overnight at 37° C., 5% CO2. The media was removed from the 20,000 cell-per-well dish, cells were washed once with serum-free media, and serum-fiee media was placed on cells. The plates containing cells both in the presence and absence of serum were incubated for 3 additional days.
To ensure that the cells had indeed exited the cell cyde upon serum withdrawal, the percentage of BrdU positive cells, indicative of those progressing through S phase, was determined in each experiment. For the purpose of this experiment, cellular viability was evaluated simultaneously with the use of SNARF-1, a fluorescent substrate of intracellular esterases which are only active in viable cells. Together, the evaluation of BrdU incorporation and SNARF-1 cleavage by flow cytometry provided an assessment of the viability of arrested cells on a single cell basis. For this analysis, the cells were stained with SNARF-1 as follows and then prepared for determination of BrdU incorporation as described above.
HCT-116 and IMR90 cells were plated at the density described below in T25 flasks in serum-containing media (RPMI-1640 or MEM-a with 10% FCS, respectively). After 24 hours of growth, the media was removed and, after washing the cells, replaced with serum-free media. • HCT-116+FCS 5,000 cells • HCT-116−FCS 100,000 cells • IMR90+FCS 100,000 cells • IMR90−FCS 200,000 cells
The IMR90 cells were grown for an additional 3 days and the HCT-116 cells were grown for an additional 6 days before pulsing with BrdU. A 50 μg aliquot of SNARF-1 (Molecular Probes catalog #C1272) was dissolved in 50 μl DMSO at room temperature for 10 minutes and then diluted into 10 ml PBS. The SNARF-1 was further diluted 1:64,000 before 200 μl was added to each tube of cells which had been cultured in the presence or absence of serum and pulsed with BrdU for 20 hours. The cells were incubated at 37° C. for 30 minutes and then washed with 3 ml of PBS.
These cells were then fixed and prepared for the measurement of BrdU incorporation as described above. The percentage of viable (FL-2) and BrdU positive (FL-1) cells was determined on a FACScan flow cytometer.

HCT-116 = test: Calcein AM viability assay, HCT-116; details: 72-hours incubation, plus 1 mg/ml alpha acidic glycoprotein and 45 mg/ml human serum albumin, read-out: HCT-116 IC50 protein adjusted
Protocol: The potency of Cdk inhibitors, as measured by loss of cellular viability, was determined with the Calcein AM assay (Molecular Probes). Calcein AM is a substrate of intracellular esterases, which is cleaved only in viable cells to generate a fluorescent product that can be quantified with a fluorescent plate reader. The fluorescent signal is proportional to the number of viable cells, and thus loss of signal in response to the exposure of cells to Cdk inhibitors correlates with a loss of viability. This assay distinguishes cell cycle arrest from loss of viability and is thus well suited for the evaluation of Cdk inhibitors.
Cellular IC50's were determined in the human colorectal carcinoma cell line, HCT-116, and the normal human fibroblast, IMR90. Protein adjusted IC50's were also determined in HCT-116. Results are presented in Table 3 below (HCT-116 (viability/protein adjusted) and IMR-90).
HCT-116 or IMR90 cells were recovered from sub-confluent plates by trypsinization and 1,000 or 4,000 cells, respectively, were plated in 24-well dishes and incubated overnight at 37° C., 5% CO2. HCT-116 cells were cultured in RPMI-1640, 10% FCS, and IMR90 cells were cultured in Minimum Essential Medium-alpha, 10% FCS. After overnight incubation to allow.adlierence, the media was aspirated from each well and replaced with media containing a test compound at a concentration from 0 to 250 nM, spanning a total of 7 doses. The plates were returned to the incubator and cultured for an additional 3 days. […] After 72-hours incubation with the test compound, the cells were washed twice with 1×PBS, talking special care to remove all residual buffer.
A 5 μM Calcein AM. solution was prepared by dissolving a 50 μg aliquot of Calcein (Molecular Probes catalog # C3100) in 50 μl DMSO. After the Calcein had completely dissolved (10 minutes at room temperature), it was diluted into 10 ml PBS. Calcein/PBS (0.5 ml) was added to each well. The plates were incubated for 75 minutes at 37° C. (protected from light) and the fluorescent signal was read on a fluorescent plate reader (excitation 485/20 and emission 530/25).

SMILES	BrdU 24 (HCT-116 cells)	BrdU 48 (HCT-116 cells)	BrdU 72 (HCT-116 cells)	Arrested cell IMR90 (arrested IMR90 cells)	IC50 (HCT-116) [nM]
CC(C)c1nn(-c2c(Cl)cccc2Cl)c2nc(Cc3ccc(O)c(CN4CCN(C(C)C)CC4)c3)[nH]c(=O)c12.Cl.Cl [Compound C]	<0.1	<0.1	<1	>1.0	
Cl.Cl.Cl.O=C(Nc1cccc2c1C(=O)c1c-2n[nH]c1-c1ccc(OCCN2CCCC2)cc1)NN1CCOCC1 [Compound I]	<0.01	<0.1	<0.1	>1.0	< 1000
CC(C)N1CCN(CCOc2ccc(-c3[nH]nc4c3C(=O)c3c(NC(=O)NN5CCOCC5)cccc3-4)cc2)CC1.Cl.Cl.Cl [E]	<0.01	<0.1	<0.1	>0.1	< 1000
CN1CCN(NC(=O)Nc2cccc3c2C(=O)c2c-3n[nH]c2-c2ccc(OCCN3CCCC3)cc2)CC1.Cl.Cl.Cl [F]		<0.1	<1	>1.0	
CCCN(CCOc1ccc(-c2[nH]nc3c2C(=O)c2c(NC(=O)NN4CCOCC4)cccc2-3)cc1)CC1CC1.Cl.Cl.Cl [G]	<0.01	<0.1	<0.1	>0.1	< 1000
Cl.Cl.Cl.O=C(Nc1cccc2c1C(=O)c1c-2n[nH]c1-c1ccc(OCCN(CCO)CCO)cc1)NN1CCOCC1 [H]	<1	<1	<1	>1.0	
CC(C)N1CCN(Cc2cc(-c3[nH]nc4c3C(=O)c3c(NC(=O)NN5CCOCC5)cccc3-4)ccc2O)CC1.Cl.Cl.Cl.Cl [K]	<0.1	<0.1	<0.1	>1.0	< 1000
CN1CCN(NC(=O)Nc2cccc3c2C(=O)c2c-3n[nH]c2-c2ccc(OCCN3CCOCC3)cc2)CC1.Cl.Cl [Q]	<0.1	<0.1	<0.1	>0.1	< 1000
